Data as given in US12336972B2, “Synergistic nutritional compositions for treating neurocognitive disorders” (CELAGENEX RESEARCH (INDIA) PVT. LTD., priority 2021, dated 2025).

Legend:
[1] = set-up: species or system Swiss albino mice; conditions: mouse, in vivo
Text: Housing Conditions: [table]

Acetylcholine = experiment: Cholinergic dysfunction: Acetylcholine level; assay type: in vivo, Swiss albino mice
[2] = system: scopolamine induced memory deficit (Alzheimer's disease) in Swiss albino mice; experiment: Spatial learning test (T-maze test), scopolamine induced memory deficit
[3] = system: scopolamine induced memory deficit (Alzheimer's disease) in Swiss albino mice; experiment: Pole climbing test, scopolamine induced memory deficit
Tau protein = experiment: Tau pathology: Tau protein in serum; assay type: in vivo, Swiss albino mice
[4] = system: Brain-derived neurotrophic factor (BDNF); experiment: Neurotrophic factors: BDNF in serum; assay type: in vivo, Swiss albino mice
TNF-α = experiment: Neuro-inflammation cytokines: TNF-α; assay type: in vivo, Swiss albino mice; conditions: serum (FIG. 7)
IL-6 = experiment: Neuro-inflammation cytokines: IL-6 in cerebral cortex; assay type: in vivo, Swiss albino mice

COc1cc2c(cc1OC)C(=O)C(CC1CCN(Cc3ccccc3)CC1)C2 (stereo not drawn) [Group 3, Donepezil]
Body Weight, Initial [1]: 28.17 ± 2.5 gm | Feed Consumption, 0 day [1]: 3.98 gm | Feed Consumption, Week 4 [1]: 4.68 gm | Ach (Acetylcholine; Average of 6 animals): 64.95 pg/mg | Ach (Acetylcholine; animal 1): 63.20 pg/mg | Ach (Acetylcholine; animal 2): 64.80 pg/mg | Ach (Acetylcholine; animal 3): 66.50 pg/mg | Ach (Acetylcholine; animal 4): 62.50 pg/mg | Ach (Acetylcholine; animal 5): 67.20 pg/mg | Ach (Acetylcholine; animal 6): 65.50 pg/mg | T-Maze test, Latency time ([2]; Average of 6 animals): 19.00 s | T-Maze test, Number of entries in discriminated arm ([2]; Average of 6 animals): 2.67 | T-Maze test, time spent in the discriminated arm ([2]; Average of 6 animals): 55.83 s | T-Maze test, Number of entries in discriminated arm ([2]; animal 1): 3 | T-Maze test, time spent in the discriminated arm ([2]; animal 1): 60 s | T-Maze test, Number of entries in discriminated arm ([2]; animal 2): 2 | T-Maze test, time spent in the discriminated arm ([2]; animal 2): 55 s | T-Maze test, Number of entries in discriminated arm ([2]; animal 3): 3 | T-Maze test, time spent in the discriminated arm ([2]; animal 3): 56 s | T-Maze test, Number of entries in discriminated arm ([2]; animal 4): 2 | T-Maze test, time spent in the discriminated arm ([2]; animal 4): 53 s | T-Maze test, Number of entries in discriminated arm ([2]; animal 5): 3 | T-Maze test, time spent in the discriminated arm ([2]; animal 5): 55 s | T-Maze test, Number of entries in discriminated arm ([2]; animal 6): 3 | T-Maze test, time spent in the discriminated arm ([2]; animal 6): 56 s | T-Maze test, Number of entries in preferred arm ([2]; Average of 6 animals): 5.17 | T-Maze test, time spent in the preferred arm ([2]; Average of 6 animals): 120.67 s | T-Maze test, Number of entries in preferred arm ([2]; animal 1): 5 | T-Maze test, time spent in the preferred arm ([2]; animal 1): 115 s | T-Maze test, Number of entries in preferred arm ([2]; animal 2): 6 | T-Maze test, time spent in the preferred arm ([2]; animal 2): 125 s | T-Maze test, Number of entries in preferred arm ([2]; animal 3): 4 | T-Maze test, time spent in the preferred arm ([2]; animal 3): 121 s | T-Maze test, Number of entries in preferred arm ([2]; animal 4): 5 | T-Maze test, time spent in the preferred arm ([2]; animal 4): 131 s | T-Maze test, Number of entries in preferred arm ([2]; animal 5): 6 | T-Maze test, time spent in the preferred arm ([2]; animal 5): 110 s | T-Maze test, Number of entries in preferred arm ([2]; animal 6): 5 | T-Maze test, time spent in the preferred arm ([2]; animal 6): 122 s | T-Maze test, Latency time ([2]; animal 1): 20 s | T-Maze test, Latency time ([2]; animal 2): 19 s | T-Maze test, Latency time ([2]; animal 3): 20 s | T-Maze test, Latency time ([2]; animal 4): 18 s | T-Maze test, Latency time ([2]; animal 5): 18 s | T-Maze test, Latency time ([2]; animal 6): 19 s | Pole climbing test, time ([3]; Average of 6 animals): 69.83 s | Pole climbing test, time ([3]; animal 1): 75 s | Pole climbing test, time ([3]; animal 2): 72 s | Pole climbing test, time ([3]; animal 3): 65 s | Pole climbing test, time ([3]; animal 4): 61 s | Pole climbing test, time ([3]; animal 5): 77 s | Pole climbing test, time ([3]; animal 6): 69 s

NCCCS(=O)(=O)O [Group 5, 3-amino-1-propanesulfonic acid]
Body Weight, Initial [1]: 28.17 ± 2.5 gm | Feed Consumption, 0 day [1]: 3.83 gm | Feed Consumption, Week 4 [1]: 4.88 gm | Ach (Acetylcholine; Average of 6 animals): 68.07 pg/mg | Ach (Acetylcholine; animal 1): 67.00 pg/mg | Ach (Acetylcholine; animal 2): 68.50 pg/mg | Ach (Acetylcholine; animal 3): 68.80 pg/mg | Ach (Acetylcholine; animal 4): 68.00 pg/mg | Ach (Acetylcholine; animal 5): 67.90 pg/mg | Ach (Acetylcholine; animal 6): 68.20 pg/mg | Tau Protein in Serum (Tau protein; Average of 6 animals): 0.97 ng/mL | Tau Protein in Serum (Tau protein; animal 1): 1.10 ng/mL | Tau Protein in Serum (Tau protein; animal 2): 1.00 ng/mL | Tau Protein in Serum (Tau protein; animal 3): 0.90 ng/mL | Tau Protein in Serum (Tau protein; animal 4): 1.00 ng/mL | Tau Protein in Serum (Tau protein; animal 5): 0.80 ng/mL | Tau Protein in Serum (Tau protein; animal 6): 1.00 ng/mL | BDNF in Serum ([4]; Average of 6 animals): 22.23 ng/mL | BDNF in Serum ([4]; animal 1): 22.00 ng/mL | BDNF in Serum ([4]; animal 2): 22.50 ng/mL | BDNF in Serum ([4]; animal 3): 22.30 ng/mL | BDNF in Serum ([4]; animal 4): 21.00 ng/mL | BDNF in Serum ([4]; animal 5): 23.00 ng/mL | BDNF in Serum ([4]; animal 6): 22.60 ng/mL | TNF-alfa (TNF-α; Average of 6 animals): 2.83 ng/mL | TNF-alfa (TNF-α; animal 1): 2.80 ng/mL | TNF-alfa (TNF-α; animal 2): 3.10 ng/mL | TNF-alfa (TNF-α; animal 3): 2.50 ng/mL | TNF-alfa (TNF-α; animal 4): 3.00 ng/mL | TNF-alfa (TNF-α; animal 5): 2.60 ng/mL | TNF-alfa (TNF-α; animal 6): 3.00 ng/mL | T-Maze test, Latency time ([2]; Average of 6 animals): 18.83 s | T-Maze test, Number of entries in discriminated arm ([2]; Average of 6 animals): 4.17 | T-Maze test, time spent in the discriminated arm ([2]; Average of 6 animals): 60.67 s | T-Maze test, Number of entries in discriminated arm ([2]; animal 1): 5 | T-Maze test, time spent in the discriminated arm ([2]; animal 1): 60 s | T-Maze test, Number of entries in discriminated arm ([2]; animal 2): 6 | T-Maze test, time spent in the discriminated arm ([2]; animal 2): 58 s | T-Maze test, Number of entries in discriminated arm ([2]; animal 3): 6 | T-Maze test, time spent in the discriminated arm ([2]; animal 3): 61 s | T-Maze test, Number of entries in discriminated arm ([2]; animal 4): 3 | T-Maze test, time spent in the discriminated arm ([2]; animal 4): 62 s | T-Maze test, Number of entries in discriminated arm ([2]; animal 5): 3 | T-Maze test, time spent in the discriminated arm ([2]; animal 5): 60 s | T-Maze test, Number of entries in discriminated arm ([2]; animal 6): 2 | T-Maze test, time spent in the discriminated arm ([2]; animal 6): 63 s | T-Maze test, Number of entries in preferred arm ([2]; Average of 6 animals): 4.50 | T-Maze test, time spent in the preferred arm ([2]; Average of 6 animals): 105.67 s | T-Maze test, Number of entries in preferred arm ([2]; animal 1): 6 | T-Maze test, time spent in the preferred arm ([2]; animal 1): 109 s | T-Maze test, Number of entries in preferred arm ([2]; animal 2): 4 | T-Maze test, time spent in the preferred arm ([2]; animal 2): 102 s | T-Maze test, Number of entries in preferred arm ([2]; animal 3): 5 | T-Maze test, time spent in the preferred arm ([2]; animal 3): 106 s | T-Maze test, Number of entries in preferred arm ([2]; animal 4): 4 | T-Maze test, time spent in the preferred arm ([2]; animal 4): 108 s | T-Maze test, Number of entries in preferred arm ([2]; animal 5): 5 | T-Maze test, time spent in the preferred arm ([2]; animal 5): 105 s | T-Maze test, Number of entries in preferred arm ([2]; animal 6): 3 | T-Maze test, time spent in the preferred arm ([2]; animal 6): 104 s | T-Maze test, Latency time ([2]; animal 1): 20 s | T-Maze test, Latency time ([2]; animal 2): 19 s | T-Maze test, Latency time ([2]; animal 3): 18 s | T-Maze test, Latency time ([2]; animal 4): 19 s | T-Maze test, Latency time ([2]; animal 5): 17 s | T-Maze test, Latency time ([2]; animal 6): 20 s | IL-6 in cerebral cortex (IL-6; Average of 6 animals): 36.35 pg/mL | IL-6 in cerebral cortex (IL-6; animal 1): 37.80 pg/mL | IL-6 in cerebral cortex (IL-6; animal 2): 36.50 pg/mL | IL-6 in cerebral cortex (IL-6; animal 3): 35.70 pg/mL | IL-6 in cerebral cortex (IL-6; animal 4): 34.80 pg/mL | IL-6 in cerebral cortex (IL-6; animal 5): 36.50 pg/mL | IL-6 in cerebral cortex (IL-6; animal 6): 36.80 pg/mL | Pole climbing test, time ([3]; Average of 6 animals): 59.00 s | Pole climbing test, time ([3]; animal 1): 65 s | Pole climbing test, time ([3]; animal 2): 60 s | Pole climbing test, time ([3]; animal 3): 62 s | Pole climbing test, time ([3]; animal 4): 56 s | Pole climbing test, time ([3]; animal 5): 54 s | Pole climbing test, time ([3]; animal 6): 57 s
